Source: US11945806B2, “Stabilization of amyloidogenic immunoglobulin light chains” (The Scripps Research Institute, priority 2019, dated 2024)

These molecules were tested against WIL-FL (Homo sapiens, UniProt P01721) (assay: Unlabeled LC Protease Sensitivity Assay (proteinase K)). Settings: small molecule 10 μM, WIL-FL 5 μM, proteinase K 50 nM, 2 hours at 37° C.
Assay type: biochemical
Summary of the method: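 Compound at 10 μM (1% DMSO) is mixed with 5 μM WIL-FL and 50 nM proteinase K in PBS pH 7.4/0.02% Pluronic F-127, 37 °C, 2 h, then quenched with PMSF. Remaining protein measured by SEC-UPLC peak area at 280 nm and expressed as fold protection relative to vehicle and no-protease controls.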

Structure (SMILES) | Protection (fold protection of LC from protease)
CCN(CC)c1ccc2c(C)c(CCOC(=O)NCc3ccc4[nH]ccc4c3)c(=O)oc2c1 [Compound 137, 2-(7-(diethylamino)-4-methyl-2-oxo-2H-chromen-3-yl)ethyl ((1H-indol-5-yl)methyl)carbamate] | B (3 ≤ B < 0.6)
CCN(CC)c1ccc2c(C)c(CCOC(=O)NCc3ccc(=O)[nH]c3)c(=O)oc2c1 [Compound 138, 2-(7-(diethylamino)-4-methyl-2-oxo-2H-chromen-3-yl)ethyl ((6-oxo-1,6-dihydropyridin-3-yl)methyl)carbamate] | A (A < 0.3))
CCN(CC)c1ccc2c(C)c(CCOC(=O)NCc3nccc4ccccc34)c(=O)oc2c1 [Compound 139, 2-(7-(diethylamino)-4-methyl-2-oxo-2H-chromen-3-yl)ethyl (isoquinolin-1-ylmethyl)carbamate] | A (A < 0.3))
CCN(CC)c1ccc2c(C)c(CCOC(=O)NCc3cncc4ccccc34)c(=O)oc2c1 [Compound 140, 2-(7-(diethylamino)-4-methyl-2-oxo-2H-chromen-3-yl)ethyl (isoquinolin-4-ylmethyl)carbamate] | A (A < 0.3))
CCN(CC)c1ccc2c(C)c(CCOC(=O)NCc3cccc(-c4c[nH]cn4)c3)c(=O)oc2c1 [Compound 141, 2-(7-(diethylamino)-4-methyl-2-oxo-2H-chromen-3-yl)ethyl (3-(1H-imidazol-4-yl)benzyl)carbamate] | C (C ≥ 0.6)
CCN(CC)c1ccc2c(C)c(CCOC(=O)NCc3ccc4nc[nH]c4c3)c(=O)oc2c1 [Compound 142, 2-(7-(diethylamino)-4-methyl-2-oxo-2H-chromen-3-yl)ethyl ((1H-benzo[d]imidazol-6-yl)methyl)carbamate] | C (C ≥ 0.6)
CCN(CC)c1ccc2c(C)c(CCOC(=O)NCc3ccc4cc[nH]c(=O)c4c3)c(=O)oc2c1 [Compound 143, 2-(7-(diethylamino)-4-methyl-2-oxo-2H-chromen-3-yl)ethyl ((1-oxo-1,2-dihydroisoquinolin-7-yl)methyl)carbamate] | B (3 ≤ B < 0.6)
CCN(CC)c1ccc2c(C)c(CCOC(=O)NCc3ccc(F)c(C(N)=O)c3)c(=O)oc2c1 [Compound 144, 2-(7-(diethylamino)-4-methyl-2-oxo-2H-chromen-3-yl)ethyl (3-carbamoyl-4-fluorobenzyl)carbamate] | C (C ≥ 0.6)
CCN(CC)c1ccc2c(C)c(CCOC(=O)NCc3cc(F)cc(C(N)=O)c3)c(=O)oc2c1 [Compound 145, 2-(7-(diethylamino)-4-methyl-2-oxo-2H-chromen-3-yl)ethyl (3-carbamoyl-5-fluorobenzyl)carbamate] | C (C ≥ 0.6)
CCN(CC)c1ccc2c(C)c(CCOC(=O)NCC3CCCNC3)c(=O)oc2c1 (centres unmarked) [Compound 146, 2-(7-(diethylamino)-4-methyl-2-oxo-2H-chromen-3-yl)ethyl (piperidin-3-ylmethyl)carbamate] | B (3 ≤ B < 0.6)
CCN(CC)c1ccc2c(C)c(CCOC(=O)NCC3CCNCC3)c(=O)oc2c1 [Compound 147, 2-(7-(diethylamino)-4-methyl-2-oxo-2H-chromen-3-yl)ethyl (piperidin-4-ylmethyl)carbamate] | B (3 ≤ B < 0.6)
CCN(CC)c1ccc2c(C)c(CCOC(=O)NCC3CCN(C)CC3)c(=O)oc2c1 [Compound 148, 2-(7-(diethylamino)-4-methyl-2-oxo-2H-chromen-3-yl)ethyl ((1-methylpiperidin-4-yl)methyl)carbamate] | B (3 ≤ B < 0.6)
CCN(CC)c1ccc2c(C)c(CCOC(=O)NCc3cccc(S(N)(=O)=O)c3)c(=O)oc2c1 [Compound 149, 2-(7-(diethylamino)-4-methyl-2-oxo-2H-chromen-3-yl)ethyl (3-sulfamoylbenzyl)carbamate] | C (C ≥ 0.6)
CCN(CC)c1ccc(NC(=O)CN2C(=O)CNC2=O)cc1 [Compound 150, N-(4-(diethylamino)phenyl)-2-(2,5-dioxoimidazolidin-1-yl)acetamide] | A (A < 0.3))
O=C(CN1C(=O)CNC1=O)Nc1ccc(C(F)(F)F)cc1 [Compound 151, 2-(2,5-dioxoimidazolidin-1-yl)-N-(4-(trifluoromethyl)phenyl)acetamide] | A (A < 0.3))
Cc1c(CN2CCOCC2)c(=O)oc2cc(OC(C)c3ccccc3)ccc12 (centres unmarked) [Compound 152, 4-methyl-3-(morpholinomethyl)-7-(1-phenylethoxy)-2H-chromen-2-one] | B (3 ≤ B < 0.6)

Structure (SMILES) | Protection (fold protection of LC from protease)
CCN(CC)c1ccc2c(C)c(CCOC(=O)NCc3cccc(-c4ncc[nH]4)c3)c(=O)oc2c1 [Compound 153, 2-(7-(diethylamino)-4-methyl-2-oxo-2H-chromen-3-yl)ethyl (3-(1H-imidazol-2-yl)benzyl)carbamate] | C (C ≥ 0.6)
CCN(CC)c1ccc2c(C)c(CCOC(=O)NCc3cccc(-c4ccccn4)c3)c(=O)oc2c1 [Compound 154, 2-(7-(diethylamino)-4-methyl-2-oxo-2H-chromen-3-yl)ethyl (3-(pyridin-2-yl)benzyl)carbamate] | C (C ≥ 0.6)
CCN(CC)c1ccc2c(C)c(CCOC(=O)NCc3cccc(-c4ncccn4)c3)c(=O)oc2c1 [Compound 155, 2-(7-(diethylamino)-4-methyl-2-oxo-2H-chromen-3-yl)ethyl (3-(pyrimidin-2-yl)benzyl)carbamate] | C (C ≥ 0.6)
CCN(CC)c1ccc2c(C)c(CCOC(=O)NCc3cccc(-c4cncnc4)c3)c(=O)oc2c1 [Compound 156, 2-(7-(diethylamino)-4-methyl-2-oxo-2H-chromen-3-yl)ethyl (3-(pyrimidin-5-yl)benzyl)carbamate] | B (3 ≤ B < 0.6)
CCN(CC)c1ccc2c(C)c(CCOC(=O)NCc3cccc(-c4cnccn4)c3)c(=O)oc2c1 [Compound 157, 2-(7-(diethylamino)-4-methyl-2-oxo-2H-chromen-3-yl)ethyl (3-(pyrazin-2-yl)benzyl)carbamate] | C (C ≥ 0.6)
CCN(CC)c1ccc2c(C)c(CCN3CC4(CCN(c5ccccc5)CC4)NC3=O)c(=O)oc2c1 [Compound 158, 3-(2-(7-(diethylamino)-4-methyl-2-oxo-2H-chromen-3-yl)ethyl)-8-phenyl-1,3,8-triazaspiro[4.5]decan-2-one] | B (3 ≤ B < 0.6)
CCN(CC)c1ccc2c(C)c(CCOC(=O)NCc3cccc(-c4cc[nH]n4)c3)c(=O)oc2c1 [Compound 159, 2-(7-(diethylamino)-4-methyl-2-oxo-2H-chromen-3-yl)ethyl (3-(1H-pyrazol-5-yl)benzyl)carbamate] | C (C ≥ 0.6)
CCN(CC)c1ccc2c(C)c(CCOC(=O)NCc3cccc(-c4nc[nH]c4C)c3)c(=O)oc2c1 [Compound 160, 2-(7-(diethylamino)-4-methyl-2-oxo-2H-chromen-3-yl)ethyl (3-(5-methyl-1H-imidazol-4-yl)benzyl)carbamate] | C (C ≥ 0.6)
CCN(CC)c1ccc2c(C)c(CCOC(=O)NCc3cccc(-c4cccnc4)c3)c(=O)oc2c1 [Compound 161, 2-(7-(diethylamino)-4-methyl-2-oxo-2H-chromen-3-yl)ethyl (3-(pyridin-3-yl)benzyl)carbamate] | C (C ≥ 0.6)
CCN(CC)c1ccc2c(C)c(CCOC(=O)NCc3cccc(-c4ccncc4)c3)c(=O)oc2c1 [Compound 162, 2-(7-(diethylamino)-4-methyl-2-oxo-2H-chromen-3-yl)ethyl (3-(pyridin-4-yl)benzyl)carbamate] | C (C ≥ 0.6)
CCN(CC)c1ccc2c(C)c(CCOC(=O)NCc3cccc(-c4ccc[nH]c4=O)c3)c(=O)oc2c1 [Compound 163, 2-(7-(diethylamino)-4-methyl-2-oxo-2H-chromen-3-yl)ethyl (3-(2-oxo-1,2-dihydropyridin-3-yl)benzyl)carbamate] | C (C ≥ 0.6)
CCN(CC)c1ccc2c(C)c(CCOC(=O)NCc3cccc(-c4cn[nH]c4)c3)c(=O)oc2c1 [Compound 164, 2-(7-(diethylamino)-4-methyl-2-oxo-2H-chromen-3-yl)ethyl (3-(1H-pyrazol-4-yl)benzyl)carbamate] | C (C ≥ 0.6)
CCN(CC)c1ccc2c(C)c(CCOC(=O)NCc3cccc(-c4nc[nH]n4)c3)c(=O)oc2c1 [Compound 165, 2-(7-(diethylamino)-4-methyl-2-oxo-2H-chromen-3-yl)ethyl (3-(1H-1,2,4-triazol-5-yl)benzyl)carbamate] | C (C ≥ 0.6)
CCN(CC)c1ccc2c(C)c(CCOC(=O)NCc3cccc(-c4cccnn4)c3)c(=O)oc2c1 [Compound 166, 2-(7-(diethylamino)-4-methyl-2-oxo-2H-chromen-3-yl)ethyl (3-(pyridazin-3-yl)benzyl)carbamate] | C (C ≥ 0.6)
CCC(CC)c1ccc2c(C)cc(=O)oc2c1 [Compound 168, 4-methyl-7-(pentan-3-yl)-2H-chromen-2-one] | A (A < 0.3))
Cc1cc(=O)oc2cc(C(F)(F)F)ccc12 [Compound 169, 4-methyl-7-(trifluoromethyl)-2H-chromen-2-one] | A (A < 0.3))
